Structures can show the parent of a compound that is named as a salt.
Legend:
E. coli ATCC 25922 = experiment: MIC, agar dilution method in Mueller Hinton agar; format: cell-based; conditions: Escherichia coli, ATCC25922, read-out: Minimum Inhibiting Concentration Values
Experimental: (§1) In vitro activity was determined by minimum inhibitory concentration in a microorganism spectum by the agar dilution method in Mueller Hinton agar.

E. coli TEM-1 = experiment: MIC, agar dilution method in Mueller Hinton agar; format: cell-based; conditions: Escherichia coli, TEM1, read-out: Minimum Inhibiting Concentration Values
Experimental: as §1

Prot. vulgaris ATCC 6380 = experiment: MIC, agar dilution method in Mueller Hinton agar; format: cell-based; conditions: Proteus vulgaris, ATCC6380, read-out: Minimum Inhibiting Concentration Values
Experimental: as §1

Ps. aeruginosa 5712 = experiment: MIC, agar dilution method in Mueller Hinton agar; format: cell-based; conditions: Pseudomonas aeruginosa, read-out: Minimum Inhibiting Concentration Values
Experimental: as §1

[1] = system: Ps. aeruginosa ATCC 27853; experiment: MIC, agar dilution method in Mueller Hinton agar; format: cell-based; conditions: Pseudomonas aeruginosa, ATCC27853, read-out: Minimum Inhibiting Concentration Values
Experimental: as §1

Staph. aureus ATCC 29213 = experiment: MIC, agar dilution method in Mueller Hinton agar; format: cell-based; conditions: Staphylococcus aureus, ATCC29213, read-out: Minimum Inhibiting Concentration Values
Experimental: as §1

Staph. aureus Smith = experiment: MIC, agar dilution method in Mueller Hinton agar; format: cell-based; conditions: Staphylococcus aureus, read-out: Minimum Inhibiting Concentration Values
Experimental: as §1

Str. pneumoniae 6301 = experiment: MIC, agar dilution method in Mueller Hinton agar; format: cell-based; conditions: Streptococcus pneumoniae, 6301, read-out: Minimum Inhibiting Concentration Values
Experimental: as §1

Str. pyogenes 4 = experiment: MIC, agar dilution method in Mueller Hinton agar; format: cell-based; conditions: Streptococcus pyogenes, read-out: Minimum Inhibiting Concentration Values
Experimental: as §1

Escherichia coli 25922 = experiment: Efficacy against systemic infections (septicemia) in mice; format: in vivo; conditions: 96 h, Escherichia coli 25922, po (orally) 1 and 3 h after challenge, survival day 4
Method in brief: (§2)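 Swiss albino mice (16–20 g) infected i.p. with 4–10× the 48-h LD50 of each strain; compound given p.o. or s.c. at 1 and 3 h post-challenge, plus 5 h for P. aeruginosa BA. Five mice per group; ED50 (mg/kg) by probit analysis of day-4 survival.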

[2] = system: Pseudomonas aeruginosa BA; experiment: as above; format: in vivo; conditions: 96 h, sc (subcutaneous) 1, 3 and 5 h after challenge, survival day 4
Method in brief: as §2

[3] = system: Streptococcus pyogenes 15; experiment: as above; format: in vivo; conditions: 96 h, Streptococcus pyogenes 15, po (orally) 1 and 3 h after challenge, survival day 4
Method in brief: as §2

| Structure (SMILES) | MIC (E. coli ATCC 25922) | MIC (E. coli TEM-1) | MIC (Prot. vulgaris ATCC 6380) | MIC (Ps. aeruginosa 5712) | MIC [1] | MIC (Staph. aureus ATCC 29213) | MIC (Staph. aureus Smith) | MIC (Str. pneumoniae 6301) | MIC (Str. pyogenes 4) | ED50 (Escherichia coli 25922) | ED50 [2] | ED50 [3] |
| --- | --- | --- | --- | --- | --- | --- | --- | --- | --- | --- | --- | --- |
| Nc1nc(/C(=N/OCC(=O)O)C(=O)N[C@@H]2C(=O)N3C(C(=O)O)=C(/C=C4\CCN(CC(F)(F)F)C4=O)CS[C@H]23)cs1 [A, [6R-[3(E),6α,7β(Z)]]-7-[[(2-Amino-4-thiazolyl)[(carboxy-methoxy)imino]-acetyl]amino]-3-[[1-(2,2,2-trifluoroethyl)-2-oxo-3-pyrrolidinylidene]-methyl]-8-oxo-5-thia-1-aza-bicyclo[4.2.0]oct-2-ene-2-carboxylic acid disodium salt] | 0.0625 µg/mL | 0.0625 µg/mL | ≤ 0.0156 µg/mL | 8 µg/mL | 8 µg/mL | 16 µg/mL | 8 µg/mL | 0.0625 µg/mL | 0.125 µg/mL | < 0.1 mg/kg | 12 mg/kg | > 0.8 mg/kg |
| Nc1nc(/C(=N/OCC(=O)O)C(=O)N[C@@H]2C(=O)N3C(C(=O)O)=C(/C=C4\CCN(CCF)C4=O)CS[C@H]23)cs1 [B, [6R-[3(E),6α,7β(Z)]]-7-[[(2-Amino-4-thiazolyl)[(carboxy-methoxy)imino]-acetyl]amino]-3-[[1-(2-fluoroethyl)-2-oxo-3-pyrrolidinylidene]methyl]-8-oxo-5-thia-1-azabicyclo[4.2.0]-oct-2-ene-2-carboxylic acid disodium salt] | 0.0313 µg/mL | 0.0313 µg/mL | ≤ 0.0156 µg/mL | 4 µg/mL | 4 µg/mL | 16 µg/mL | 8 µg/mL | 0.0313 µg/mL | 0.125 µg/mL | < 0.1 mg/kg | 3.5 mg/kg | 0.5 mg/kg |

— EP0620225B1, “Cephalosporin derivatives” (Basilea Pharmaceutica AG, priority 1993, dated 1994)
